Experimental data reported in patent US6972319B1, “Pituitary adenylate cyclase activating peptide (PACAP)receptor 3 (R3) agonists and their pharmacological methods of use” (priority 1999, dated 2005).
No end group written: not given here.

Legend:
[1] = Airway hyperresponsiveness in the primate acute asthma model; format: in vivo, cynomolgus monkeys (Macaca fascicularls); conditions: for Delta log10 PC100, Mean, Treated: aerosol 10 minutes before Ascaris suum antigen challenge, +24 hr minus baseline, R3P0 0.6, R3P76 3.0, R3P82 1.8 ug/kg; for % Inhibition of induced AHR: treated vs control, R3P0 0.6, R3P76 3.0, R3P82 1.8 ug/kg by inhalation
Method: Male cynomolgus monkeys (Macaca fascicularls) used in this study were maintained at constant temperature and humidity with a twelve hour light cycle. They were fed twice daily, except on an experimental day when food was withheld the night before the procedure. Water was available ad lib at all times.
Airway hyperresponsiveness (AHR)(baseline) was measured 1 week before the control (no treatment) antigen challenge, and again 24 hrs after antigen challenge. Antigen-induced airway hyperresponsiveness was measured by a fall in the PC100 (the concentration of methacholine required to cause a 100% increase in lung resistance) at 24 hr compared to baseline. After 2 weeks rest, another baseline measurement of AHR was performed. One week later, peptides of this invention were administered as an aerosol, 10 minutes before antigen challenge. After 24 hrs, AHR was again measured, and the fall in PC100 with treatment was compared to that without treatment.
Experimental Procedure. On each experimental day animals were anaesthetized with a ketamine/xylazine mixture (70:12 mg kg^−1 @ 0.1 ml kg^−1) while still in their cage. When unconscious they were brought into the primate laboratory where they were placed in a supine position on a heated water blanket on a trolley. Ophthalmic ointment was wiped onto each eye, and 0.2 ml lidocaine (2%,) sprayed onto the larynx and over the back of the throat. The Jaws were held apart by a jaw spreader and a cuffed 5.0 gauge endotracheal tube (with the end liberally smeared with xylocaine gel, 2%) was inserted with the aid of laryngoscope. The animal was then placed into a specially designed restraint chair such that the animal was in a slightly reclined but upright sitting position, secured only by a collar at the neck. A water-heated blanket surrounded the animal.
The endotracheal tube was connected to a Harvard Ventilator adjusted to deliver 30-35 breaths per minute. Airflow was measured by a Fleisch pneumotachograph and thoracic pressure was measured by a validyne pressure transducer (as the difference between the pressure at the distal end of the et tube and room pressure).
The pneumotachograph and validyne were connected to a pre-amplifier and then into an MI^2 respiratory analyser. […]
Antigen challenge: This was an inhalation challenge with Ascaris suum. […] 30 breaths of antigen were administered after which the acute bronchoconstriction was monitored for 15 min. […]
Methacholine challenge: Methacholine dose response curves were carried out to assess the airway hyperresponsiveness. In the acute model, this was measured at +24 hour and compared to the responsiveness 7 days before treatment. […] The aerosol was administered for 15 breaths and then lung resistance was monitored for ten minutes. […]

PACAP-R2 = molecular target: T1, PACAP-R2 (Homo sapiens, UniProt P32241); experiment: Cyclic AMP SPA on CHO cells transfected with PACAP-R2; format: cell-based; conditions: cAMP SPA, concentration at which 50% of maximum PACAP27 activity is achieved, NA = no detectable activities, read-out: R2 EC50
T1 construct: expressed in transfected cells; host or cells: CHO cells
T1 sequence (P32241 31-457): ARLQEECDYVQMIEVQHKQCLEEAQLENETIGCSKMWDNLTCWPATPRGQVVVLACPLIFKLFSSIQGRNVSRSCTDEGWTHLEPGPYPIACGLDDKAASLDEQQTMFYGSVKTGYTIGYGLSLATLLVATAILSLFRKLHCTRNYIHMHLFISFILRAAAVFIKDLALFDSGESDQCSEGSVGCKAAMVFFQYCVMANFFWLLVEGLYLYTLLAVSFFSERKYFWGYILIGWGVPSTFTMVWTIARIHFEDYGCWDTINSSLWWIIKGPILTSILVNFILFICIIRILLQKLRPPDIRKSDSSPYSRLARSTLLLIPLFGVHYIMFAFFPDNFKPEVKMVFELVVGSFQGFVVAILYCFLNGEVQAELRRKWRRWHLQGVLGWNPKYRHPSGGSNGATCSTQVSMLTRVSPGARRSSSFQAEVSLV
Outline: (§1)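 Receptor-transfected CHO cells are stimulated with peptide for 15 min at 37 C in the presence of phosphodiesterase inhibitor IBMX (100 uM), bacitracin and soybean trypsin inhibitor; cAMP is then read by scintillation proximity.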

PACAP-R3 [2] = molecular target: T2, PACAP-R3 (Homo sapiens, UniProt P41587); conditions: literature (Gourlet et al., Xia et al.); b170: over R1 and R2; cited from earlier work
T2 sequence (P41587 24-438): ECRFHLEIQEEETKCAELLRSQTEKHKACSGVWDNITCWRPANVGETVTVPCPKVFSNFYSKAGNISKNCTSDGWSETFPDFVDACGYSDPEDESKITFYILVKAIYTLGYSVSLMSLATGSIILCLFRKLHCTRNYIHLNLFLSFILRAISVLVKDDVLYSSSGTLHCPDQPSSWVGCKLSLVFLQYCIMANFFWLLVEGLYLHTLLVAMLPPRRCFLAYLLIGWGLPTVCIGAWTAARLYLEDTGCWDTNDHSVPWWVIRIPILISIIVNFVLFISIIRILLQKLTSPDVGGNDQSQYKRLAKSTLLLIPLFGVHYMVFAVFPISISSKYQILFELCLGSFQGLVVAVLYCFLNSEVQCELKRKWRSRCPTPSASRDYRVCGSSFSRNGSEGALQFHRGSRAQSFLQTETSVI

PACAP-R3 [3] = molecular target: T2, PACAP-R3; experiment: Cyclic AMP SPA on CHO cells expressing PACAP R3; format: cell-based; design: expressed in transfected cells; host or cells: CHO cells (Geneticin selection)
Outline: as §1

Molecule | Delta log10 PC100, Mean, Treated [1] | % Inhibition of induced AHR [1] | EC50 (PACAP-R2) | PACAP-R3 selectivity (PACAP-R3 [2]) | EC50 (PACAP-R3 [3]; cAMP SPA, CHO cells transfected with PACAP-R3, concentration at which 50% of maximum PACAP27 activity is achieved, NA = no detectable activities, read-out: R3 EC50) | R3 Selectivity (PACAP-R3 [3]; ratio of EC50 at R2 versus EC50 at R3)
CC[C@H](C)[C@H](NC(=O)[C@@H](NC(=O)[C@H](CC(N)=O)NC(=O)[C@H](CC(C)C)NC(=O)[C@H](Cc1ccc(O)cc1)NC(=O)[C@H](Cc1c[nH]cn1)NC(=O)[C@H](CCCCN)NC(=O)[C@H](C)NC(=O)[C@H](C)NC(=O)[C@H](CC(C)C)NC(=O)[C@H](CCC(N)=O)NC(=O)[C@H](CCCCN)NC(=O)[C@H](CCCNC(=N)N)NC(=O)[C@H](CC(C)C)NC(=O)[C@H](CCCNC(=N)N)NC(=O)[C@@H](NC(=O)[C@H](Cc1ccc(O)cc1)NC(=O)[C@H](CCC(N)=O)NC(=O)[C@H](CC(=O)O)NC(=O)[C@@H](NC(=O)[C@H](Cc1ccccc1)NC(=O)[C@@H](NC(=O)[C@H](C)NC(=O)[C@H](CC(=O)O)NC(=O)[C@H](CO)NC(=O)[C@@H](N)Cc1c[nH]cn1)C(C)C)[C@@H](C)O)[C@@H](C)O)[C@@H](C)O)C(=O)N[C@@H](CCCCN)C(=O)N[C@@H](CC(N)=O)C(=O)N[C@@H](CCCCN)C(=O)N[C@@H](CCCNC(=N)N)C(=O)N[C@@H](Cc1ccc(O)cc1)C(=O)O [Peptide R3P76] | +0.047 | 100% | > 0.15 µM |  |  | 
Helodermin |  |  |  | ~100 fold |  | 
HSDAVFTDNYTRLRKQVAVKKYLQSIKNKRY [Peptide R3P82] | −0.067 | 88% | 0.01 µM |  | 0.0004 µM | 23
